The values that follow are results of earlier work, collected in PubChem BioAssay AID1259409 (Chemical Carcinogenesis Research Information System (CCRIS), 2018).

This series relates to rodent chemically induced tumor inhibition, incidence and multiplicity. The series is described as follows: CCRIS tumor inhibitor studies. Particulars: 57-97-6.

Regarding `C=CC1=C(C)C2=NC1=CC1=NC(=CC3=C(C)C4=C(O)[C@H](C(=O)OC)C(=C5NC(=C2)[C@@H](C)[C@@H]5CCC(=O)O)C4=N3)C(CC)=C1C`, the “tumour outcome (control, treated, inhibition, significance)” value by setting is: (Carcinogen: 7,12-DIMETHYLBENZ[A]ANTHRACENE, Dose [Inhibitor]: 0, 16 NMOL IN 0.1 ML ACETONE 2/WK FOR 20 WK APPLIED 40 MIN PRIOR TO EACH PROMOTER DOSE (STUDY DURATION: 21 WK), Route [Inhibitor]: DERMAL, Species: MOUSE, Strain/Sex: ICR/FEMALE, Target Tissue: Type of Lesion: SKIN: TUMOR, Dose [Carcinogen]: 0.19 UMOL IN 0.1 ML ACETONE ONCE, Promoter: 12-O-TETRADECANOYLPHORBOL-13-ACETATE, 16561-29-8) 100%, 72%, 28%, p<0.005; (Carcinogen: 7,12-DIMETHYLBENZ[A]ANTHRACENE, Dose [Inhibitor]: 0, 160 NMOL IN 0.1 ML ACETONE 2/WK FOR 20 WK APPLIED 40 MIN PRIOR TO EACH PROMOTER DOSE (STUDY DURATION: 21 WK), Route [Inhibitor]: DERMAL, Species: MOUSE, Strain/Sex: ICR/FEMALE, Target Tissue: Type of Lesion: SKIN: TUMOR, Dose [Carcinogen]: 0.19 UMOL IN 0.1 ML ACETONE ONCE, Promoter: 12-O-TETRADECANOYLPHORBOL-13-ACETATE, 16561-29-8) 100%, 69%, 31%, p<0.005.

`CC(C)(C)N=C=O`: the “tumour outcome (control, treated, inhibition, significance)” value (Carcinogen: 7,12-DIMETHYLBENZ(A)ANTHRACENE, Dose [Inhibitor]: 0.013 MMOL/G IN DIET BEGINNING 1 WK AFTER CARCINOGEN ADMINISTRATION (STUDY DURATION: 23 WK), Route [Inhibitor]: ORAL, Species: RAT, Strain/Sex: SPRAGUE-DAWLEY/FEMALE, Target Tissue: Type of Lesion: MAMMARY GLAND: TUMOR, Dose [Carcinogen]: 12 MG DMBA IN 1.0 ML OLIVE OIL ONCE, Promoter: NONE USED) is listed as 100%, 50%, 50%, p<0.001.
